Reference: patent publication US8975398B2, “NAMPT inhibitors” (AbbVie Inc., priority 2012, dated 2015)

How the values were obtained:
NAMPT = NAMPT (Homo sapiens, UniProt P43490); assay: Time-Resolved Fluorescence Resonance Energy Transfer (TR-FRET) Binding Assay of NAMPT with PRPP; details: 2 nM NAMPT, 2 nM probe, 200 uM PRPP and 2.5 mM ATP, equilibrated 16 hours
Procedure, shortened: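 Final mix: 2 nM NAMPT, 2 nM probe, 1 nM Tb-anti-His antibody, 200 uM PRPP, 2.5 mM ATP, 2% DMSO in 1× assay buffer. Equilibrated 16 hours before TR-FRET read, allowing possible enzymatic modification of compounds.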

[1] = target: NAMPT (human, recombinant, C-terminally His-tagged) (Homo sapiens, UniProt P43490); assay: Time-Resolved Fluorescence Resonance Energy Transfer (TR-FRET) Binding Assay of NAMPT; details: 6.8 nM NAMPT, 200 nM probe, equilibrated 3 hours, absence of substrates
NAMPT (human, recombinant, C-terminally His-tagged), sequence (P43490 whole entry): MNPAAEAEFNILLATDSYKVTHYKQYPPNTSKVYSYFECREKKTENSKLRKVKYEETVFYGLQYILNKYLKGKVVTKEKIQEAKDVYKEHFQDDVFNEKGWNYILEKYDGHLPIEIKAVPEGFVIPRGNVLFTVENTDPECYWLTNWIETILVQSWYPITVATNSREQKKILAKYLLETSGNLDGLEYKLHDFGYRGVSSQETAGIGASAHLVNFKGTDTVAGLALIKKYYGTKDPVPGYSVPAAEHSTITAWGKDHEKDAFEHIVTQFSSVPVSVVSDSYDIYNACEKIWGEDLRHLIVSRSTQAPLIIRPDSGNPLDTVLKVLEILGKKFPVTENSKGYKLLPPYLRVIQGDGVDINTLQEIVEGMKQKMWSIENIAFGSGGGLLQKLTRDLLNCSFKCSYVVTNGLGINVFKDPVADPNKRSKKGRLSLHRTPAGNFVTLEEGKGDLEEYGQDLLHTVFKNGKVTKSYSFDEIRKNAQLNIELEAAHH
Procedure, shortened: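 Recombinant C-terminally His-tagged human NAMPT (6.8 nM) incubated 3 h at room temperature with 200 nM Oregon Green 488–labelled nicotinamide-competitive probe and 1 nM Tb-anti-His antibody in HEPES pH 7.5, 2% DMSO. TR-FRET ratio Em520/Em495 normalized to controls; IC50 from four-parameter logistic fit.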

NAMPT, sequence (P43490 whole entry): as above

## CN1CCN(CC(=O)N2CCC(c3ccc(NC(=O)C4CN(c5cccnc5)C4)cc3)CC2)CC1 [Example 113, N-(4-{1-[(4-methylpiperazin-1-yl)acetyl]piperidin-4-yl}phenyl)-1-(pyridin-3-yl)azetidine-3-carboxamide]
NAMPT
  IC50: 0.000254 µM
[1]
  IC50: 0.0606 µM

## O=C(Nc1ccc(OC2CCN(C(=O)C3CCCCC3)CC2)cc1)C1CN(c2cccnc2)C1 [Example 49, N-(4-{[1-(cyclohexylcarbonyl)piperidin-4-yl]oxy}phenyl)-1-(pyridin-3-yl)azetidine-3-carboxamide]
NAMPT
  IC50: 0.00102 µM
[1]
  IC50: 0.0661 µM

## CC1CC1C(=O)N1CC(Oc2ccc(NC(=O)C3CN(c4ccnnc4)C3)cc2)C1 (stereo not drawn) [Example 257, N-[4-({1-[(2-methylcyclopropyl)carbonyl]azetidin-3-yl}oxy)phenyl]-1-(pyridazin-4-yl)azetidine-3-carboxamide]
NAMPT
  IC50: 0.0419 µM
[1]
  IC50: 0.0647 µM

## O=C(Nc1ccc(OC2CN(C(=O)C3CCC3)C2)cc1)C1CN(c2ccnnc2)C1 [Example 261, N-(4-{[1-(cyclobutylcarbonyl)azetidin-3-yl]oxy}phenyl)-1-(pyridazin-4-yl)azetidine-3-carboxamide]
NAMPT
  IC50: 0.0237 µM
[1]
  IC50: 0.0629 µM

## CCCC(C)CN1CCC(c2ccc(NC(=O)C3CN(c4cccnc4)C3)cc2)CC1 (stereo not drawn) [Example 90, N-{4-[1-(2-methylpentyl)piperidin-4-yl]phenyl}-1-(pyridin-3-yl)azetidine-3-carboxamide]
NAMPT
  IC50: 0.000902 µM
[1]
  IC50: 1.41 µM

## O=C(Nc1ccc(C2CCN(C(=O)c3ccccc3)CC2)cc1)C1CN(c2cccnc2)C1 [Example 26, N-[4-(1-benzoylpiperidin-4-yl)phenyl]-1-(pyridin-3-yl)azetidine-3-carboxamide]
NAMPT
  IC50: 0.000761 µM
[1]
  IC50: 0.00505 µM

## CC1CC1C(=O)N1CCC(Oc2ccc(NC(=O)C3CN(c4cccnc4)C3)cc2)CC1 (stereo not drawn) [Example 35, N-[4-({1-[(2-methylcyclopropyl)carbonyl]piperidin-4-yl}oxy)phenyl]-1-(pyridin-3-yl)azetidine-3-carboxamide]
NAMPT
  IC50: 0.000866 µM
[1]
  IC50: 0.0916 µM

## COCC(=O)N1CCC(Oc2ccc(NC(=O)C3CN(c4cccnn4)C3)cc2)CC1 [Example 246, N-(4-{[1-(methoxyacetyl)piperidin-4-yl]oxy}phenyl)-1-(pyridazin-3-yl)azetidine-3-carboxamide]
NAMPT
  IC50: 0.000676 µM
[1]
  IC50: 0.178 µM

## CC(C)(C)CN1CCC(Oc2ccc(NC(=O)C3CN(c4cccnc4)C3)cc2)CC1 [Example 79, N-(4-{[1-(2,2-dimethylpropyl)piperidin-4-yl]oxy}phenyl)-1-(pyridin-3-yl)azetidine-3-carboxamide]
NAMPT
  IC50: 0.000824 µM
[1]
  IC50: 2.69 µM

## CCCN1CCC(Oc2ccc(NC(=O)C3CN(c4cccnc4)C3)cc2)CC1 [Example 81, N-{4-[(1-propylpiperidin-4-yl)oxy]phenyl}-1-(pyridin-3-yl)azetidine-3-carboxamide]
NAMPT
  IC50: 0.00113 µM
[1]
  IC50: 3.72 µM

## O=C(Nc1ccc(OC2CN(C(=O)c3ccccc3)C2)cc1)C1CN(c2ccnnc2)C1 [Example 206, N-{4-[(1-benzoylazetidin-3-yl)oxy]phenyl}-1-(pyridazin-4-yl)azetidine-3-carboxamide]
NAMPT
  IC50: 0.0241 µM
[1]
  IC50: 0.0238 µM

## CC(C)(C)OC(=O)N1CCC(Oc2ccc(NC(=O)[C@H]3CCN(c4cccnc4)C3)cc2)CC1 [Example 8, tert-butyl 4-[4-({[(3S)-1-(pyridin-3-yl)pyrrolidin-3-yl]carbonyl}amino)phenoxy]piperidine-1-carboxylate]
NAMPT
  IC50: 0.0053 µM
[1]
  IC50: 3.36 µM

## O=C(Nc1ccc(C2CCN(C(=O)CC3C[C@@H]4CC[C@H]3C4)CC2)cc1)C1CN(c2cccnc2)C1 (stereo partly drawn) [Example 100, N-(4-{1-[(1S,4R)-bicyclo[2.2.1]hept-2-ylacetyl]piperidin-4-yl}phenyl)-1-(pyridin-3-yl)azetidine-3-carboxamide]
NAMPT
  IC50: 0.000497 µM
[1]
  IC50: 0.0306 µM

## CC(C)(O)C(=O)N1CCC(c2ccc(NC(=O)C3CN(c4cccnc4C#N)C3)cc2)CC1 [Example 2, 1-(2-cyanopyridin-3-yl)-N-{4-[1-(2-hydroxy-2-methylpropanoyl)piperidin-4-yl]phenyl}azetidine-3-carboxamide]
NAMPT
  IC50: 0.02 µM
[1]
  IC50: 0.0223 µM

## O=C(Nc1ccc(C2CCN(C(=O)c3cccc(O)c3)CC2)cc1)C1CN(c2cccnn2)C1 [Example 343, N-{4-[1-(3-hydroxybenzoyl)piperidin-4-yl]phenyl}-1-(pyridazin-3-yl)azetidine-3-carboxamide]
NAMPT
  IC50: 0.000728 µM
[1]
  IC50: 0.00618 µM

## Cc1ncccc1N1CC(C(=O)Nc2ccc(C3CCN(C(=O)c4cccnn4)CC3)cc2)C1 [Example 158, 1-(2-methylpyridin-3-yl)-N-{4-[1-(pyridazin-3-ylcarbonyl)piperidin-4-yl]phenyl}azetidine-3-carboxamide]
NAMPT
  IC50: 0.224 µM
[1]
  IC50: 2.9 µM

## O=C(Nc1ccc(OC2CCN(C(=O)c3ccccn3)CC2)cc1)C1CN(c2cccnn2)C1 [Example 242, 1-(pyridazin-3-yl)-N-(4-{[1-(pyridin-2-ylcarbonyl)piperidin-4-yl]oxy}phenyl)azetidine-3-carboxamide]
NAMPT
  IC50: 0.00117 µM
[1]
  IC50: 0.278 µM

## Cc1ncccc1N1CC(C(=O)Nc2ccc(C3CCN(C(=O)CC4C[C@@H]5CC[C@H]4C5)CC3)cc2)C1 (stereo partly drawn) [Example 161, N-(4-{1-[(1S,4R)-bicyclo[2.2.1]hept-2-ylacetyl]piperidin-4-yl}phenyl)-1-(2-methylpyridin-3-yl)azetidine-3-carboxamide]
NAMPT
  IC50: 0.0597 µM
[1]
  IC50: 0.128 µM

## Cc1ncccc1N1CC(C(=O)Nc2ccc(C3CCN(C(=O)c4ccccc4Cl)CC3)cc2)C1 [Example 151, N-{4-[1-(2-chlorobenzoyl)piperidin-4-yl]phenyl}-1-(2-methylpyridin-3-yl)azetidine-3-carboxamide]
NAMPT
  IC50: 0.0436 µM
[1]
  IC50: 0.0174 µM

## CC(C)C(=O)N1CCC(Oc2ccc(NC(=O)C3CN(c4ccnnc4)C3)cc2)CC1 [Example 294, N-(4-{[1-(2-methylpropanoyl)piperidin-4-yl]oxy}phenyl)-1-(pyridazin-4-yl)azetidine-3-carboxamide]
NAMPT
  IC50: 0.0551 µM
[1]
  IC50: 0.112 µM

## O=C(Nc1ccc(OC2CCN(C(=O)CC3CCOCC3)CC2)cc1)C1CN(c2cnccc2F)C1 [Example 6, 1-(4-fluoropyridin-3-yl)-N-(4-{[1-(tetrahydro-2H-pyran-4-ylacetyl)piperidin-4-yl]oxy}phenyl)azetidine-3-carboxamide]
NAMPT
  IC50: 0.00234 µM
[1]
  IC50: 0.544 µM

## O=C(Nc1ccc(OC2CCN(C(=O)c3cccc(OC(F)(F)F)c3)CC2)cc1)C1CN(c2ccnnc2)C1 [Example 292, 1-(pyridazin-4-yl)-N-[4-({1-[3-(trifluoromethoxy)benzoyl]piperidin-4-yl}oxy)phenyl]azetidine-3-carboxamide]
NAMPT
  IC50: 0.0647 µM
[1]
  IC50: 0.099 µM

## O=C(Nc1ccc(C2CCN(C(=O)Cc3ccc(F)cc3)CC2)cc1)C1CN(c2cccnn2)C1 [Example 368, N-(4-{1-[(4-fluorophenyl)acetyl]piperidin-4-yl}phenyl)-1-(pyridazin-3-yl)azetidine-3-carboxamide]
NAMPT
  IC50: 0.000635 µM
[1]
  IC50: 0.064 µM

## COc1ccncc1N1CC(C(=O)Nc2ccc(C3CCN(C(=O)C(C)(C)O)CC3)cc2)C1 [Example 96, N-{4-[1-(2-hydroxy-2-methylpropanoyl)piperidin-4-yl]phenyl}-1-(4-methoxypyridin-3-yl)azetidine-3-carboxamide]
NAMPT
  IC50: 0.282 µM
[1]
  IC50: 0.115 µM
